Measured values published in BigSolDB 2.1.

c1ccc2c(c1)OP1(=NP3(=NP4(=N1)Oc1ccccc1O4)Oc1ccccc1O3)O2
Conditions	solubility (mole fraction)
in 1,2-dichloroethane, 293.25 K	0.000409
in 1,2-dichloroethane, 298.35 K	0.000585
in 1,2-dichloroethane, 303.15 K	0.000765
in 1,2-dichloroethane, 308.15 K	0.00107
in 1,2-dichloroethane, 313.25 K	0.0015
in 1,2-dichloroethane, 318.55 K	0.00195
in 1,2-dichloroethane, 323.15 K	0.00252
in 1,2-dichloroethane, 328.55 K	0.00324
in 1,2-dichloroethane, 333.15 K	0.00419
in 1,2-dichloroethane, 338.25 K	0.00582
in THF, 291.95 K	0.000921
in THF, 298.25 K	0.00112
in THF, 303.65 K	0.00137
in THF, 307.95 K	0.00159
in THF, 313.25 K	0.00188
in THF, 318.35 K	0.00218
in THF, 323.15 K	0.0025
in THF, 328.25 K	0.00292
in acetone, 294.35 K	0.00025
in acetone, 298.35 K	0.000323
in acetone, 303.45 K	0.000429
in acetone, 308.65 K	0.000588
in acetone, 313.35 K	0.000759
in acetone, 318.15 K	0.000977
in acetone, 323.25 K	0.00126
in acetonitrile, 293.25 K	0.000116
in acetonitrile, 298.15 K	0.000217
in acetonitrile, 303.25 K	0.000289
in acetonitrile, 308.15 K	0.000369
in acetonitrile, 313.55 K	0.000471
in acetonitrile, 318.25 K	0.000586
in acetonitrile, 323.15 K	0.000743
in acetonitrile, 328.35 K	0.000922
in acetonitrile, 333.15 K	0.00115
in chloroform, 298.15 K	0.00214
in chloroform, 303.05 K	0.0027
in chloroform, 308.05 K	0.00334
in chloroform, 313.65 K	0.00427
in chloroform, 318.55 K	0.00519
in chloroform, 323.05 K	0.00628
in chloroform, 328.75 K	0.00771
in dichloromethane, 288.15 K	0.00108
in dichloromethane, 291.55 K	0.00127
in dichloromethane, 294.45 K	0.00145
in dichloromethane, 298.35 K	0.00175
in dichloromethane, 303.45 K	0.00219
in dichloromethane, 308.65 K	0.00276
in ethanol, 293.95 K	9.52e-05
in ethanol, 298.05 K	0.000117
in ethanol, 303.25 K	0.000153
in ethanol, 308.35 K	0.000194
in ethanol, 313.35 K	0.000234
in ethanol, 318.15 K	0.000308
in ethanol, 322.95 K	0.00038
in ethanol, 328.15 K	0.000451
in ethanol, 332.45 K	0.000562
in ethyl acetate, 298.15 K	0.000419
in ethyl acetate, 303.35 K	0.000563
in ethyl acetate, 308.25 K	0.000675
in ethyl acetate, 313.45 K	0.000856
in ethyl acetate, 318.25 K	0.00107
in ethyl acetate, 323.15 K	0.00133
in ethyl acetate, 328.15 K	0.00166
in ethyl acetate, 332.45 K	0.00188
in toluene, 293.15 K	0.000667
in toluene, 298.25 K	0.000868
in toluene, 303.15 K	0.00108
in toluene, 308.35 K	0.00137
in toluene, 313.55 K	0.0017
in toluene, 318.25 K	0.00205
in toluene, 323.15 K	0.00249
in toluene, 328.35 K	0.00305
in toluene, 333.15 K	0.00367
in toluene, 338.25 K	0.00442
